Data: US8383637B2, “2-amino-quinazoline derivatives useful as inhibitors of β-secretase (BACE)” (Jansssen Pharmaceutica N.V., priority 2004, dated 2013)

Experiments:
Format in all cases: biochemical
β-secretase(BACE) [1] = molecular target: T1, β-secretase(BACE) (Homo sapiens, UniProt P56817); assay: BACE % Inhibition Assay ((Aedens)-[…]-(Dabcyl K-amide) substrate); settings: % error ±10%; for inhibition at 3 µM / inhibition at 10 µM: read-out: % Inhibition
T1 construct: purchased Panvera
Procedure: The substrate stock solution was prepared in DMSO as a 10 mg/mL solution. The substrate working solution was prepared by diluting the 10 mg/mL stock solution with substrate assay buffer to a final concentration of 300 μg/mL. The β-secretase (BACE) working solution was prepared by diluting a 0.83 mg/mL BACE stock solution with enzyme assay buffer to a final concentration of 4 μg/mL.
Test compounds were dissolved in DMSO to 10 mM.
The screening procedure for this assay was as follows: 15 μL of BACE working solution was pipetted into each well of a 96-well plate. To each well was then pipetted 2 μL of test compound at the selected concentration. Test compound and BACE were then mixed with a pipettor and incubated for 20 min at room temperature. To each well was then added 10 μL of the substrate working solution. The plates were then incubated for 1 hour at room temperature.
The procedure for the blank was as follows. 15 μL of assay buffer was pipetted into each well to be used as a blank control. To each well was then added 2 μL of vehicle and 10 μL of substrate working solution. The plates were then incubated for 1 hour at room temperature.
The procedure for the positive control was as follows: 15 μl of BACE working solution was pipetted into each well to be used as a positive control. To each well was then pipetted 2 μL of vehicle. Vehicle and BACE were then mixed with a pipettor and incubated for 20 min at room temperature. To each well was then added 10 μL of the substrate working solution. The plates were then incubated for 1 hour at room temperature.
For test compounds, % inhibition was determined at each concentration as follows: […]

β-secretase(BACE) [2] = molecular target: T1, β-secretase(BACE); assay: BACE Assay-1 (MCA-substrate, IC50); settings: procedure of Example 158; read-out: IC50 μM (158)
Procedure, shortened: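 Human BACE (work solution 10 μg/mL) with MCA-peptide substrate (stock 2.0 mg/mL) in 0.05 M citrate buffer, pH 5.0, with PEG8000. Fluorescence read at T0 and T60; compounds tested at multiple concentrations and IC50 calculated from these readings.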

β-secretase(BACE) [3] = molecular target: T1, β-secretase(BACE); assay: BACE Assay-2 (FS1 substrate, IC50 and Ki); settings: procedure of Example 159, FS1 substrate; for Ki: read-out: Ki μM (159)
β-secretase(BACE) [4] = molecular target: T1, β-secretase(BACE); assay: BACE FS1% Inhibition Assay; settings: FS1 substrate
Procedure, shortened: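 Human BACE (4 μg/mL working solution) preincubated 20 min at room temperature with compound, then FS1 substrate (300 μg/mL working solution) added and incubated 1 h at room temperature. Percent inhibition calculated at each compound concentration against blank and vehicle controls.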

T1 sequence (P56817 46-501): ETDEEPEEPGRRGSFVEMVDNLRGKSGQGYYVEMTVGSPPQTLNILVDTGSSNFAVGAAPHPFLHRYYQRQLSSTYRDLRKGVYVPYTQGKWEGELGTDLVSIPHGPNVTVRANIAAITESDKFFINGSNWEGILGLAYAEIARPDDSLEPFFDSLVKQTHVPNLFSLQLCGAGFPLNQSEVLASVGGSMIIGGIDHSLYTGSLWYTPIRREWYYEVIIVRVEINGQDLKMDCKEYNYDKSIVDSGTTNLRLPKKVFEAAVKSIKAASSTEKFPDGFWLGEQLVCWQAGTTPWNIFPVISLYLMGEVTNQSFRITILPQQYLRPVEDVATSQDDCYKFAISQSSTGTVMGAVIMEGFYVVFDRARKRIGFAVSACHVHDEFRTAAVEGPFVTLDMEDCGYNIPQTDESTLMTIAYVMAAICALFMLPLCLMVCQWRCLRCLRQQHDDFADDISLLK

Molecule	% Inhibition (β-secretase(BACE) [1]; 3 μM test compound) [%]	% Inhibition (β-secretase(BACE) [1]; 10 μM test compound) [%]	Ki (β-secretase(BACE) [3]) [µM]	inhibition at 3 µM (β-secretase(BACE) [1]; 3 μM test compound) [%]	other results
3-(2-Amino-6-phenoxy-4H-quinazolin-3-yl)-pentanedioic acid bis-(cyclohexyl-methyl-amide) [Compound 107]	48	78	1.2		IC50 (β-secretase(BACE) [2]): 0.82 µM; IC50 (β-secretase(BACE) [3]): 4.58 µM
NC1=Nc2ccc(C(=O)c3ccccc3)cc2CN1CCNC(=O)C1CCCCC1 [Compound 7, Cyclohexanecarboxylic acid [2-(2-amino-6-benzoyl-4H-quinazolin-3-yl)-ethyl]-amide]			0.24	76	inhibition at 10 µM (β-secretase(BACE) [1]; 10 μM test compound): 87%; IC50 (β-secretase(BACE) [2]): 1.4 µM; IC50 (β-secretase(BACE) [3]): 5.3 µM
CN(CCCN1Cc2cc(C(=O)c3ccccc3)ccc2N=C1N)C1CCCCC1 [Compound 15, {2-Amino-3-[3-(cyclohexyl-methyl-amino)-propyl]-3,4-dihydro-quinazolin-6-yl}-phenyl-methanone]			4	42	inhibition at 10 µM (β-secretase(BACE) [1]; 10 μM test compound): 69%; IC50 (β-secretase(BACE) [2]): 2.3 µM
NC1=Nc2ccc(Oc3ccccc3)cc2CN1CCCCC(=O)N(C1CCCCC1)C1CCCCC1 [Compound 19]			0.38	67	inhibition at 10 µM (β-secretase(BACE) [1]; 10 μM test compound): 92%; IC50 (β-secretase(BACE) [2]): 0.18 µM; IC50 (β-secretase(BACE) [3]): 1.6 µM
CN(C(=O)[C@H]1CCCC[C@H]1N1Cc2cc(Oc3ccccc3)ccc2N=C1N)C1CCCCC1 [Compound 81]	<30	<30			
CCCC(CCC(=O)N(C)C1CCCCC1)N1Cc2cc(Oc3ccccc3)ccc2N=C1N (centres unmarked) [Compound 86]	72	80			
CN(C(=O)[C@@H]1CCCC[C@@H]1N1Cc2cc(Oc3ccccc3)ccc2N=C1N)C1CCCCC1 [Compound 87]	<30	<30			
CN(C(=O)[C@@H]1CCCN1C(=O)CN1Cc2cc(Oc3ccccc3)ccc2N=C1N)C1CCCCC1 [Compound 88]	<30	<30			
CN(C(=O)c1cc(CN2Cc3cc(Oc4ccccc4)ccc3N=C2N)ccn1)C1CCCCC1 [Compound 89]				77	inhibition at 10 µM (β-secretase(BACE) [1]; 10 μM test compound): 81%; IC50 (β-secretase(BACE) [3]): 0.4 µM
CC(C)(C)OC(=O)N1CCC(N2Cc3cc(Oc4ccccc4)ccc3N=C2N)C1 (centres unmarked) [Compound 93]	<30	<30			
CN(C(=O)c1cccc(N2Cc3cc(Oc4ccccc4)ccc3N=C2N)c1)C1CCCCC1 [Compound 94]	<30	<30			
CN(C(=O)c1ccc(CN2Cc3cc(Oc4ccccc4)ccc3N=C2N)cc1)C1CCCCC1 [Compound 97]	<30	53			
CN(C(=O)C1CCC(CN2Cc3cc(Oc4ccccc4)ccc3N=C2N)CC1)C1CCCCC1 (centres unmarked) [Compound 100]	<30	<30			
CC(C)(C)OC(=O)NCCCCN1Cc2cc(Oc3ccccc3)ccc2N=C1N [Compound 101]				45	inhibition at 10 µM (β-secretase(BACE) [1]; 10 μM test compound): 64%; IC50 (β-secretase(BACE) [3]): 11 µM
CC(C)(C)OC(=O)NCCCN1Cc2cc(Oc3ccccc3)ccc2N=C1N [Compound 103]			4	56	inhibition at 10 µM (β-secretase(BACE) [1]; 10 μM test compound): 74%; IC50 (β-secretase(BACE) [3]): 3.6 µM
CCCC(CCCC(=O)N(CC)C1CCCCC1)N1Cc2cc(Oc3ccccc3)ccc2N=C1N (centres unmarked) [Compound 105]	<30	<30			% Inhibition (FS) 0.3 μM (β-secretase(BACE) [4]; 0.3 μM test compound): <30%; % Inhibition (FS) 1 μM (β-secretase(BACE) [4]; 1 μM test compound): <30%; % Inhibition (FS) 3 μM (β-secretase(BACE) [4]; 3 μM test compound): <30%
Cc1ccc(S(=O)(=O)NCCN2Cc3cc(Oc4ccccc4)ccc3N=C2N)cc1 [Compound 109]	<30	58			
CC(C)(C)C(=O)NCC(C1CCCCC1)N1Cc2cc(Oc3ccccc3)ccc2N=C1N (centres unmarked) [Compound 317]	107				% Inhibition (β-secretase(BACE) [1]; 0.3 μM test compound): <30%; % Inhibition (β-secretase(BACE) [1]; 1 μM test compound): 66%
NC1=Nc2ccc(Oc3ccccc3)cc2CN1Cc1cccc(CNC(=O)C23CC4CC(CC(C4)C2)C3)c1 [Compound 336]	<30				% Inhibition (β-secretase(BACE) [1]; 0.3 μM test compound): <30%; % Inhibition (β-secretase(BACE) [1]; 1 μM test compound): <30%
NC1=Nc2ccc(Oc3ccccc3)cc2CN1Cc1cccc(CNC(=O)C(c2ccccc2)c2ccccc2)c1 [Compound 337]	<30				% Inhibition (β-secretase(BACE) [1]; 0.3 μM test compound): <30%; % Inhibition (β-secretase(BACE) [1]; 1 μM test compound): <30%
CCCC(CCC)C(=O)NCc1cccc(CN2Cc3cc(Oc4ccccc4)ccc3N=C2N)c1 [Compound 338]	<30				% Inhibition (β-secretase(BACE) [1]; 0.3 μM test compound): <30%; % Inhibition (β-secretase(BACE) [1]; 1 μM test compound): <30%
CCCCC(CC)C(=O)NCc1cccc(CN2Cc3cc(Oc4ccccc4)ccc3N=C2N)c1 (centres unmarked) [Compound 339]	<30				% Inhibition (β-secretase(BACE) [1]; 0.3 μM test compound): <30%; % Inhibition (β-secretase(BACE) [1]; 1 μM test compound): <30%
CCCCC(CC)C(=O)NCC(c1ccccc1)N1Cc2cc(Oc3ccccc3)ccc2N=C1N (centres unmarked) [Compound 341]	72				% Inhibition (β-secretase(BACE) [1]; 0.3 μM test compound): <30%; % Inhibition (β-secretase(BACE) [1]; 1 μM test compound): <30%
NC1=Nc2ccc(Oc3ccccc3)cc2CN1CCC(=O)NC12CC3CC(CC(C3)C1)C2 [Compound 365]			0.1	113	inhibition at 0.3 µM (β-secretase(BACE) [1]; 0.3 μM test compound): < 30%; inhibition at 1 µM (β-secretase(BACE) [1]; 1 μM test compound): 86%
NC1=Nc2ccc(Oc3ccccc3)cc2CN1C(CNC(=O)CCC1CCCC1)C1CCCCC1 (centres unmarked) [Compound 366]			0.067	119	inhibition at 0.3 µM (β-secretase(BACE) [1]; 0.3 μM test compound): 64%; inhibition at 1 µM (β-secretase(BACE) [1]; 1 μM test compound): 113%
CC(C)(C)OC(=O)NCC(C1CCCCC1)N1Cc2cc(Oc3ccccc3)ccc2N=C1N (centres unmarked) [Compound 367]			0.12	111	inhibition at 0.3 µM (β-secretase(BACE) [1]; 0.3 μM test compound): < 30%; inhibition at 1 µM (β-secretase(BACE) [1]; 1 μM test compound): 80%
CC(C)CCC(=O)NCC(C1CCCCC1)N1Cc2cc(Oc3ccccc3)ccc2N=C1N (centres unmarked) [Compound 388]	119				% Inhibition (β-secretase(BACE) [1]; 0.3 μM test compound): 107%; % Inhibition (β-secretase(BACE) [1]; 1 μM test compound): 119%
CC(C)CC(=O)NCC(C1CCCCC1)N1Cc2cc(Oc3ccccc3)ccc2N=C1N (centres unmarked) [Compound 389]			0.028	120	inhibition at 0.3 µM (β-secretase(BACE) [1]; 0.3 μM test compound): 85%; inhibition at 1 µM (β-secretase(BACE) [1]; 1 μM test compound): 112%
NC1=Nc2ccc(Oc3ccccc3)cc2CN1C(CNC(=O)C1(c2ccc(Cl)cc2)CCCC1)C1CCCCC1 (centres unmarked) [Compound 390]	102				% Inhibition (β-secretase(BACE) [1]; 0.3 μM test compound): <30%; % Inhibition (β-secretase(BACE) [1]; 1 μM test compound): 50%
